Each block holds one compound with its values, some of them ahead of it.
Key:
Format in all cases: biochemical
recombinant human VAP-1 = target: T1, recombinant human VAP-1 (Homo sapiens, UniProt Q16853); experiment: Activity on recombinant human VAP-1, HRP-coupled Amplex Red hydrogen peroxide assay; details: substrate 1 mM benzylamine; compound incubated with enzyme at 37° C. for 30 minutes; pH 7.4; read-out: Inhibitory Activity (IC50, nM) human VAP-1
T1 construct: purchased R&D systems
T1 sequence (Q16853 1-763): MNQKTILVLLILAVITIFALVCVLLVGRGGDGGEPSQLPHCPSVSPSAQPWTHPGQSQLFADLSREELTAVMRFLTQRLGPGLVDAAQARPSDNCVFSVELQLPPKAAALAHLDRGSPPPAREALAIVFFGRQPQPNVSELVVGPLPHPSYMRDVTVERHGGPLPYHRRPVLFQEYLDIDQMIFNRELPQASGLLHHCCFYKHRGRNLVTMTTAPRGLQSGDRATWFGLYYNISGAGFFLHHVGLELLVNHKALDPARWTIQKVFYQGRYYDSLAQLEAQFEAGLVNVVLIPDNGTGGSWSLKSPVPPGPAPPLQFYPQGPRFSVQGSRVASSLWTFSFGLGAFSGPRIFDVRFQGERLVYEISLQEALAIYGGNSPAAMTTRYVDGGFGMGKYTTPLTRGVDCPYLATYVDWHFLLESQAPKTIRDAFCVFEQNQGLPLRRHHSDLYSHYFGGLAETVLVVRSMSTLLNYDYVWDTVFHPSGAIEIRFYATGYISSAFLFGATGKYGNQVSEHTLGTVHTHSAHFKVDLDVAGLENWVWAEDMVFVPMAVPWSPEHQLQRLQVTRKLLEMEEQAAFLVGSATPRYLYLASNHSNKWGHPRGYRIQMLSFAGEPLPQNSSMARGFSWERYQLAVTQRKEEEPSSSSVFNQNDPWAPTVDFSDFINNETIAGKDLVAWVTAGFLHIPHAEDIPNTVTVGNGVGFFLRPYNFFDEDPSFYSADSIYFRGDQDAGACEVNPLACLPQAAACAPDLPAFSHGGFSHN
How it was run: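 Enzyme in 50 mM sodium phosphate pH 7.4 preincubated with compound 30 min at 37 °C, then 1 mM benzylamine, 200 µM Amplex Red and 1 U/mL HRP added. H2O2-derived resorufin fluorescence (ex 544/em 590 nm) followed over 1–2 h; signal-rate decrease versus DMSO control, 8-point curve, four-parameter logistic IC50.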

[1] = target: T2, recombinant human MAO-B (monoamine oxidase-B) (Homo sapiens, UniProt P27338); experiment: Activity on recombinant human MAO-B, method similar to the VAP-1 assay; details: substrate 1 mM benzylamine; read-out: Inhibitory Activity (IC50, nM) MAO-B
T2 construct: purchased Sigma-Aldrich
T2 sequence (P27338 1-520): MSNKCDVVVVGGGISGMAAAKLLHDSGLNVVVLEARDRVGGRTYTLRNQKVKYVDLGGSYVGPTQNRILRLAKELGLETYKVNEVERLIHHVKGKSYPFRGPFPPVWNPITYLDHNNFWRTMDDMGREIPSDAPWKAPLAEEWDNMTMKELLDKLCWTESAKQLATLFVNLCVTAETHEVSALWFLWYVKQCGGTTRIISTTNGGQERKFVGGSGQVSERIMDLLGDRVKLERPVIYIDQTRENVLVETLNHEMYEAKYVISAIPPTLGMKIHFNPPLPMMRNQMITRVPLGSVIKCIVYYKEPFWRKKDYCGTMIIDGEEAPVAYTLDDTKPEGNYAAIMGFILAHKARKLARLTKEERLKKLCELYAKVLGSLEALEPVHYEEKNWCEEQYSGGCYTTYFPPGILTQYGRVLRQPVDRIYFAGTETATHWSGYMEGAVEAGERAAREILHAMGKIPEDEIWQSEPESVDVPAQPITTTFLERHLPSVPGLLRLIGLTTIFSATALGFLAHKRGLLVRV
How it was run: (§1)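 Enzyme preincubated with compound 30 min at 37 °C in 50 mM sodium phosphate pH 7.4, final DMSO below 1%. Substrate was 0.5 mM tyramine for MAO-A and 1 mM benzylamine for MAO-B, with 200 uM Amplex Red and 1 U/mL HRP. H2O2-coupled resorufin fluorescence (ex 544/em 590) followed over 1–2 h; 8-point 4-parameter IC50.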

[2] = target: T3, recombinant human MAO-A (monoamine oxidase-A) (Homo sapiens, UniProt P21397); experiment: Activity on recombinant human MAO-A, method similar to the VAP-1 assay; details: substrate 0.5 mM tyramine; read-out: Inhibitory Activity (IC50, nM) MAO-A
T3 construct: purchased Sigma-Aldrich
T3 sequence (P21397 1-527): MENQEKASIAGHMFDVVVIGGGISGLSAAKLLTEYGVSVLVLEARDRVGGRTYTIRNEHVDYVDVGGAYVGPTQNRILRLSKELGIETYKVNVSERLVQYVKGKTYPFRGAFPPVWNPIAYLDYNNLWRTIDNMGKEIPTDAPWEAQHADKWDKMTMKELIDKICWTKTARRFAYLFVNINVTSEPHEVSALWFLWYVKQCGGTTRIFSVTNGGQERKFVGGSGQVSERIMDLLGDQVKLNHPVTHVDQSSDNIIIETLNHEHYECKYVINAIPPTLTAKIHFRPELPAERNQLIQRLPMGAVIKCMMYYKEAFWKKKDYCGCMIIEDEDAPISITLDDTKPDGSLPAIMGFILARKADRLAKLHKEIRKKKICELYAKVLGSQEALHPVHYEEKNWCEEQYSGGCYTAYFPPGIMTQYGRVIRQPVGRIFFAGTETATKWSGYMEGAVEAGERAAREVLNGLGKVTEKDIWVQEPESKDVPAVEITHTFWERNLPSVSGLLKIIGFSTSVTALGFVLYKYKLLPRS
How it was run: as §1

[3] = target: T4, recombinant human DAO (diamine oxidase) (Homo sapiens, UniProt P19801); experiment: Activity on recombinant human DAO, method similar to the VAP-1 assay; details: substrate 1 mM putrescine; read-out: Inhibitory Activity (IC50, nM) DAO
T4 construct: purchased R&D systems
T4 sequence (P19801 20-751): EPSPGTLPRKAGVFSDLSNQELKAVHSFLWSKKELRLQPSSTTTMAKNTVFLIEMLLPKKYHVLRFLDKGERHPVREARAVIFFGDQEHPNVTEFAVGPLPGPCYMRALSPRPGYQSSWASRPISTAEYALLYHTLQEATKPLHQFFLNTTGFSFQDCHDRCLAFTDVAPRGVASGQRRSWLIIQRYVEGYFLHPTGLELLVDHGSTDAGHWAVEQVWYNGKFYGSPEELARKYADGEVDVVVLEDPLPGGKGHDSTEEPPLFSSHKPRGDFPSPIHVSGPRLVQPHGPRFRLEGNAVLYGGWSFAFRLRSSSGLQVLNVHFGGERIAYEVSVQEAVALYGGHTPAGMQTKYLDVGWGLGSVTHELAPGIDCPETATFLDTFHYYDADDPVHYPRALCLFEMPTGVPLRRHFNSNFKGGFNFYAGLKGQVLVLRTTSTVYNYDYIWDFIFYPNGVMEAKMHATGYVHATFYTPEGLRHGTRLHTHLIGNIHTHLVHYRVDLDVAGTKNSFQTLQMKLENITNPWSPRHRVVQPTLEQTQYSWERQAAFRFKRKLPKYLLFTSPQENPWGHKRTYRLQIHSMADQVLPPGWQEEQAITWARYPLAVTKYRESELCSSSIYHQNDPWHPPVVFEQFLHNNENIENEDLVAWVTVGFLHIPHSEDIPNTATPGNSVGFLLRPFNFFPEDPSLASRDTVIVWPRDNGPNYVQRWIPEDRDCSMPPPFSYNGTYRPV
How it was run: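 Inhibition of recombinant human diamine oxidase (DAO, R&D systems) was assessed by the same approach as the VAP-1 assay, using 1 mM putrescine as substrate. Hydrogen peroxide formed was detected through an HRP-coupled Amplex Red reaction yielding fluorescent resorufin, read at 544 nm excitation and 590 nm emission. IC50 values came from four-parameter logistic fitting in GraphPad Prism.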

Compound: NC/C(=C\F)Cn1ncn(Cc2ccc(-c3cnn(Cc4ccccc4)c3)s2)c1=O [Example 151, 2-[(2E)-2-(aminomethyl)-3-fluoroprop-2-en-1-yl]-4-{[5-(1-benzyl-1H-pyrazol-4-yl)thiophen-2-yl]methyl}-2,4-dihydro-3H-1,2,4-triazol-3-one]
IC50 (recombinant human VAP-1): 2.7 nM
IC50 [1]: 1500 nM
IC50 [2]: 59000 nM
IC50 [3]: 790 nM

Compound: NC/C(=C\F)Cn1ncn(Cc2ccc(-c3cn[nH]c3)s2)c1=O [Example 152, 2-[(2E)-2-(aminomethyl)-3-fluoroprop-2-en-1-yl]-4-{[5-(1H-pyrazol-4-yl)thiophen-2-yl]methyl}-2,4-dihydro-3H-1,2,4-triazol-3-one]
IC50 (recombinant human VAP-1): 4.9 nM
IC50 [1]: 3500 nM
IC50 [2]: 13000 nM
IC50 [3]: 4400 nM

Compound: CCn1cc(-c2ccc(Cn3cnn(C/C(=C/F)CN)c3=O)s2)cn1 [Example 153, 2-[(2E)-2-(aminomethyl)-3-fluoroprop-2-en-1-yl]-4-{[5-(1-ethyl-1H-pyrazol-4-yl)thiophen-2-yl]methyl}-2,4-dihydro-3H-1,2,4-triazol-3-one]
IC50 (recombinant human VAP-1): 1.3 nM
IC50 [1]: 1900 nM
IC50 [2]: > 100000 nM
IC50 [3]: 4700 nM

Compound: Cn1c(-c2ccc(Cn3cnn(C/C(=C/F)CN)c3=O)s2)cnc1Cl [Example 154, 2-[(2E)-2-(aminomethyl)-3-fluoroprop-2-en-1-yl]-4-{[5-(2-chloro-1-methyl-1H-imidazol-5-yl)thiophen-2-yl]methyl}-2,4-dihydro-3H-1,2,4-triazol-3-one]
IC50 (recombinant human VAP-1): 4.4 nM
IC50 [1]: 1400 nM
IC50 [2]: > 100000 nM
IC50 [3]: 690 nM

Compound: Cn1nccc1-c1ccc(Cn2cnn(C/C(=C/F)CN)c2=O)s1 [Example 156, 2-[(2E)-2-(aminomethyl)-3-fluoroprop-2-en-1-yl]-4-{[5-(1-methyl-1H-pyrazol-5-yl)thiophen-2-yl]methyl}-2,4-dihydro-3H-1,2,4-triazol-3-one]
IC50 (recombinant human VAP-1): 4.2 nM
IC50 [1]: 28 nM
IC50 [2]: > 100000 nM
IC50 [3]: 1300 nM

Compound: Cc1nn(C)cc1-c1ccc(Cn2cnn(C/C(=C/F)CN)c2=O)s1 [Example 157, 2-[(2E)-2-(aminomethyl)-3-fluoroprop-2-en-1-yl]-4-{[5-(1,3-dimethyl-1H-pyrazol-4-yl)thiophen-2-yl]methyl}-2,4-dihydro-3H-1,2,4-triazol-3-one]
IC50 (recombinant human VAP-1): 2.6 nM
IC50 [1]: 330 nM
IC50 [2]: > 100000 nM
IC50 [3]: 1700 nM

The next compounds have a lower IC50 (recombinant human VAP-1) than those just listed; values first:

IC50 (recombinant human VAP-1): 0.4 nM
IC50 [1]: 3900 nM
IC50 [2]: > 100000 nM
IC50 [3]: 1300 nM
Compound: NC/C(=C\F)Cn1ncn(Cc2ccc(-c3cc4c(cc3F)NC(=O)CC4)s2)c1=O [Example 146, 6-[5-({1-[(2E)-2-(aminomethyl)-3-fluoroprop-2-en-1-yl]-5-oxo-1,5-dihydro-4H-1,2,4-triazol-4-yl}methyl)thiophen-2-yl]-7-fluoro-3,4-dihydroquinolin-2(1H)-one]

IC50 (recombinant human VAP-1): 0.3 nM
IC50 [1]: 6700 nM
IC50 [2]: > 100000 nM
IC50 [3]: 1000 nM
Compound: CN1Cc2cc(-c3ccc(Cn4cnn(C/C(=C/F)CN)c4=O)s3)ccc2NC1=O [Example 147, 6-[5-({1-[(2E)-2-(aminomethyl)-3-fluoroprop-2-en-1-yl]-5-oxo-1,5-dihydro-4H-1,2,4-triazol-4-yl}methyl)thiophen-2-yl]-3-methyl-3,4-dihydroquinazolin-2(1H)-one]

IC50 (recombinant human VAP-1): 0.4 nM
IC50 [1]: 24000 nM
IC50 [2]: > 100000 nM
IC50 [3]: 420 nM
Compound: NC/C(=C\F)Cn1ncn(Cc2ccc(-c3cnc4c(c3)CCC(=O)N4)s2)c1=O [Example 148, 6-[5-({1-[(2E)-2-(aminomethyl)-3-fluoroprop-2-en-1-yl]-5-oxo-1,5-dihydro-4H-1,2,4-triazol-4-yl}methyl)thiophen-2-yl]-3,4-dihydro-1,8-naphthyridin-2(1H)-one]

IC50 (recombinant human VAP-1): 0.4 nM
IC50 [1]: 4500 nM
IC50 [2]: > 100000 nM
IC50 [3]: 470 nM
Compound: NC/C(=C\F)Cn1ncn(Cc2ccc(-c3cnc4c(c3)COC(=O)N4)s2)c1=O [Example 149, 6-[5-({1-[(2E)-2-(aminomethyl)-3-fluoroprop-2-en-1-yl]-5-oxo-1,5-dihydro-4H-1,2,4-triazol-4-yl}methyl)thiophen-2-yl]-1,4-dihydro-2H-pyrido[2,3-d][1,3]oxazin-2-one]

IC50 (recombinant human VAP-1): 0.8 nM
IC50 [1]: 26000 nM
IC50 [2]: > 100000 nM
IC50 [3]: 190 nM
Compound: CN1C(=O)COc2ncc(-c3ccc(Cn4cnn(C/C(=C/F)CN)c4=O)s3)cc21 [Example 150, 7-[5-({1-[(2E)-2-(aminomethyl)-3-fluoroprop-2-en-1-yl]-5-oxo-1,5-dihydro-4H-1,2,4-triazol-4-yl}methyl)thiophen-2-yl]-1-methyl-1H-pyrido[2,3-b][1,4]oxazin-2(3H)-one]

IC50 (recombinant human VAP-1): 0.4 nM
IC50 [1]: 470 nM
IC50 [2]: > 100000 nM
IC50 [3]: 950 nM
Compound: CC(=O)c1ccc(-c2ccc(Cn3cnn(C/C(=C/F)CN)c3=O)s2)s1 [Example 155, 4-[(5′-acetyl-2,2′-bithiophen-5-yl)methyl]-2-[(2E)-2-(aminomethyl)-3-fluoroprop-2-en-1-yl]-2,4-dihydro-3H-1,2,4-triazol-3-one]
